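Cultured in 96-well plates, cells were exposed to test compound for 48 hours across five concentrations. GI50 is the concentration that inhibits growth by half. At the TGI there is no net growth.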
Tests used:
Assay in all cases: NCI-60 cell line screen, 48 h
KM12 colon = test system: KM12 colon
OVCAR-3 ovarian = test system: OVCAR-3 ovarian
M14 melanoma = test system: M14 melanoma
TK-10 renal = test system: TK-10 renal
HCC-2998 colon = test system: HCC-2998 colon
NCI-H226 lung = test system: NCI-H226 lung
SW-620 colon = test system: SW-620 colon
K-562 leukemia = test system: K-562 leukemia
UACC-62 melanoma = test system: UACC-62 melanoma
MDA-MB-231 breast = test system: MDA-MB-231 breast

CNC(=O)Nc1ccccc1
TGI (KM12 colon): > 100 µM
TGI (OVCAR-3 ovarian): > 100 µM
TGI (M14 melanoma): > 100 µM
TGI (TK-10 renal): > 100 µM
TGI (HCC-2998 colon): > 100 µM
TGI (NCI-H226 lung): > 100 µM
TGI (SW-620 colon): > 100 µM
TGI (K-562 leukemia): > 100 µM
TGI (UACC-62 melanoma): > 100 µM
TGI (MDA-MB-231 breast): > 100 µM

Nc1nc(=O)n(CC(O)CO)s1 (stereo not given)
TGI (OVCAR-3 ovarian): > 100 µM
TGI (M14 melanoma): > 100 µM
TGI (TK-10 renal): > 100 µM
TGI (HCC-2998 colon): > 100 µM
TGI (NCI-H226 lung): > 100 µM
TGI (SW-620 colon): > 100 µM
TGI (K-562 leukemia): > 100 µM
TGI (UACC-62 melanoma): > 100 µM

C[N+](C)(CCO)CCN1c2ccccc2Sc2ccccc21
TGI (KM12 colon): > 10 µM
TGI (OVCAR-3 ovarian): > 10 µM
TGI (M14 melanoma): > 10 µM
TGI (TK-10 renal): > 10 µM
TGI (HCC-2998 colon): > 10 µM
TGI (NCI-H226 lung): > 10 µM
TGI (SW-620 colon): > 10 µM
TGI (K-562 leukemia): > 10 µM
TGI (UACC-62 melanoma): > 10 µM
TGI (MDA-MB-231 breast): > 10 µM

CC(=O)C1=C(O)CCC1=O
TGI (KM12 colon): > 100 µM
TGI (OVCAR-3 ovarian): > 100 µM
TGI (M14 melanoma): > 100 µM
TGI (TK-10 renal): > 100 µM
TGI (HCC-2998 colon): > 100 µM
TGI (NCI-H226 lung): > 100 µM
TGI (SW-620 colon): > 100 µM
TGI (K-562 leukemia): > 100 µM
TGI (UACC-62 melanoma): > 100 µM

COc1cc2c(cc1OCCCN1CCN(c3ncnc4ccccc34)CC1)N=CC1CCCN1C2=O (stereo not given)
GI50 (KM12 colon): 0.0325 µM
TGI (KM12 colon): 0.183 µM
GI50 (OVCAR-3 ovarian): 0.0269 µM
TGI (OVCAR-3 ovarian): 0.0595 µM
GI50 (M14 melanoma): 0.0303 µM
TGI (M14 melanoma): 0.138 µM
GI50 (TK-10 renal): 0.0293 µM
TGI (TK-10 renal): 1.08 µM
GI50 (HCC-2998 colon): 0.019 µM
TGI (HCC-2998 colon): 0.0381 µM
GI50 (NCI-H226 lung): 0.0348 µM
TGI (NCI-H226 lung): 0.247 µM
GI50 (SW-620 colon): 0.0198 µM
TGI (SW-620 colon): 0.0556 µM
GI50 (K-562 leukemia): 0.0262 µM
GI50 (UACC-62 melanoma): 0.018 µM
TGI (UACC-62 melanoma): 0.0379 µM
GI50 (MDA-MB-231 breast): 0.0205 µM
TGI (MDA-MB-231 breast): 0.0736 µM

C[C@]12CCC(=O)C=C1CC[C@@H]1[C@@H]2[C@@H](O)C[C@@]2(C)[C@H]1CC[C@]2(O)C(=O)COC(=O)C1CCCC1
TGI (KM12 colon): > 100 µM
TGI (OVCAR-3 ovarian): > 100 µM
TGI (M14 melanoma): > 100 µM
TGI (TK-10 renal): > 100 µM
TGI (HCC-2998 colon): > 100 µM
TGI (NCI-H226 lung): > 100 µM
TGI (SW-620 colon): > 100 µM
TGI (K-562 leukemia): > 100 µM
TGI (UACC-62 melanoma): > 100 µM
TGI (MDA-MB-231 breast): > 100 µM

O=C(NNC(=O)c1nsc2ccccc12)c1ccc(Cl)cc1
TGI (KM12 colon): 65.7 µM
TGI (OVCAR-3 ovarian): 36.6 µM
TGI (M14 melanoma): 36.9 µM
TGI (TK-10 renal): 48.9 µM
TGI (HCC-2998 colon): 31 µM
TGI (SW-620 colon): > 100 µM
TGI (K-562 leukemia): 35.1 µM

COc1ccc2nc3ccccc3c(NCc3ccc(C)cc3)c2c1
GI50 (KM12 colon): 2.6 µM
TGI (KM12 colon): 8.49 µM
GI50 (OVCAR-3 ovarian): 2 µM
TGI (OVCAR-3 ovarian): 4.36 µM
GI50 (M14 melanoma): 1.69 µM
TGI (M14 melanoma): 3.61 µM
GI50 (TK-10 renal): 1.97 µM
TGI (TK-10 renal): 4.15 µM
GI50 (HCC-2998 colon): 1.73 µM
TGI (HCC-2998 colon): 3.26 µM
GI50 (NCI-H226 lung): 1.97 µM
TGI (NCI-H226 lung): 5.12 µM
GI50 (SW-620 colon): 1.57 µM
TGI (SW-620 colon): 4.24 µM
GI50 (K-562 leukemia): 1.61 µM
TGI (K-562 leukemia): > 100 µM
GI50 (UACC-62 melanoma): 1.64 µM
TGI (UACC-62 melanoma): 3.26 µM
GI50 (MDA-MB-231 breast): 1.76 µM
TGI (MDA-MB-231 breast): 4.12 µM

Cn1c(=O)c2c(nc(NCCNc3nc4c(c(=O)n(C)c(=O)n4C)n3C)n2C)n(C)c1=O
TGI (KM12 colon): > 100 µM
TGI (OVCAR-3 ovarian): > 100 µM
TGI (M14 melanoma): > 100 µM
TGI (TK-10 renal): > 100 µM
TGI (HCC-2998 colon): > 100 µM
TGI (NCI-H226 lung): > 100 µM
TGI (SW-620 colon): > 100 µM
TGI (K-562 leukemia): > 100 µM
TGI (UACC-62 melanoma): > 100 µM
TGI (MDA-MB-231 breast): > 100 µM

O=S(O)c1cc(Cl)cc(Cl)c1OCc1ccccc1
TGI (KM12 colon): > 100 µM
TGI (OVCAR-3 ovarian): > 100 µM
TGI (M14 melanoma): > 100 µM
TGI (TK-10 renal): > 100 µM
TGI (HCC-2998 colon): > 100 µM
TGI (K-562 leukemia): > 100 µM
TGI (UACC-62 melanoma): > 100 µM

COc1cc2c(cc1OC)-c1cc3ccc(OC)c(OC)c3c[n+]1CC2
TGI (KM12 colon): > 100 µM
TGI (OVCAR-3 ovarian): > 100 µM
TGI (M14 melanoma): > 100 µM
TGI (TK-10 renal): > 100 µM
TGI (HCC-2998 colon): > 100 µM
TGI (NCI-H226 lung): > 100 µM
TGI (SW-620 colon): > 100 µM
TGI (K-562 leukemia): > 100 µM
TGI (UACC-62 melanoma): > 100 µM
TGI (MDA-MB-231 breast): > 100 µM

Source: PubChem BioAssay (NCI)
